Earlier results in article PMC7606817 (Journal of controlled release : official journal of the …, 2020).

Settings: mice

[C-]#[O+] [CO, Carbon monoxide]
CO elimination half-life: 20 min
